Laboratory results from the OPERA property sets (Mansouri et al. 2018).

Conditions: for log10 biotransformation half-life (days) / log10 BCF: fish

Structure (SMILES) | melting point | boiling point | further results
O=C1OC(=O)c2c(Br)c(Br)c(Br)c(Br)c21 | 275 °C | – | –
CCC(c1ccccc1)c1ccccc1 | 13.3 °C | 282 °C | –
CC[C@H](CC[C@@H](C)[C@H]1CC[C@H]2[C@@H]3CC=C4C[C@@H](O)CC[C@]4(C)[C@H]3CC[C@]12C)C(C)C | 144 °C | – | –
CC[N+](=O)[O-] | -89.5 °C | 114 °C | log10 Henry constant (atm·m³/mol): -4.32; log10 Koa: 2.88; log10 vapour pressure (mmHg): 1.32
FC(Cl)=C(Cl)C(F)(F)F | -137 °C | 47.3 °C | –
CC(=O)NC(N)=O | 218 °C | – | –
O=Cc1cc(Cl)cc(Cl)c1 | 65 °C | 240 °C | –
CCCCCCCC/C=C\CCCCCCCC(=O)OC | -19.9 °C | – | log10 vapour pressure (mmHg): -5.2; ready biodegradability: readily biodegradable
COC(=O)c1ccccc1 | -15 °C | 199 °C | log10 Koc (L/kg): 2.1; log10 vapour pressure (mmHg): -0.42
CN(C(=O)Cl)c1ccccc1 | 88.5 °C | 280 °C | –
CN(C)N=Nc1nc[nH]c1C(N)=O | 205 °C | – | –
Clc1ccc(-c2cc(Cl)c(Cl)cc2Cl)c(Cl)c1 | – | – | log10 Henry constant (atm·m³/mol): -4.11; log10 vapour pressure (mmHg): -4.66; log10 biotransformation half-life (days): 2.73
OCC(F)(F)C(F)C(F)(F)F (stereo not given) | – | 117 °C | –
COC(=O)NC(=S)Nc1ccccc1NC(=S)NC(=O)OC | – | – | log10 Koc (L/kg): 3.25; log10 vapour pressure (mmHg): -7.15
CC(=O)CC(=O)OC(C)C | -27.3 °C | 186 °C | –
Nc1c(Cl)cc([N+](=O)[O-])cc1Cl | 191 °C | – | log10 Koc (L/kg): 3; log10 vapour pressure (mmHg): -5.92; ready biodegradability: not readily biodegradable
O=c1cn[nH]c(=O)[nH]1 | 274 °C | – | –
Clc1cc(Cl)c(Cl)c(-c2cc(Cl)c(Cl)cc2Cl)c1 | – | – | log10 Henry constant (atm·m³/mol): -4.6; log10 biotransformation half-life (days): 2.4
OCCOCCOCCO | -7 °C | 285 °C | ready biodegradability: readily biodegradable
Cc1ccccc1Oc1ccccc1[N+](=O)[O-] | 39.5 °C | – | –
Brc1cccc(Br)c1Oc1ccccc1 | – | – | log10 Koa: 8.12
NNCc1ccccc1 | 26 °C | – | –
CCCC=Cc1ccccc1 | – | 217 °C | –
[Br-].[Br-].c1cc[n+]2c(c1)-c1cccc[n+]1CC2 | 337 °C | – | –
CC(=O)NC(Cc1c[nH]c2ccccc12)C(=O)O (stereo not given) | 190 °C | – | –
O=C(O)c1cccc(Oc2ccccc2)c1 | 150 °C | – | –

Structure (SMILES) | melting point | boiling point | further results
CCCCCCCCCCCC(=O)Oc1c(Cl)c(Cl)c(Cl)c(Cl)c1Cl | – | – | ready biodegradability: not readily biodegradable
OCC(Cl)CCl (stereo not given) | – | 184 °C | –
Cc1ccccc1N | -16.3 °C | 200 °C | log10 Henry constant (atm·m³/mol): -5.7; log10 vapour pressure (mmHg): -0.585; ready biodegradability: readily biodegradable
CCOc1cccc(C(=O)O)c1 | 137 °C | – | –
COC(=O)N(C(=O)N1COC2(C(=O)OC)Cc3cc(Cl)ccc3C2=N1)c1ccc(OC(F)(F)F)cc1 (stereo not given) | 140 °C | – | –
CCC=C(C)C=O | – | 136 °C | –
COC | -142 °C | -24.8 °C | log10 Koa: 1.37; log10 vapour pressure (mmHg): 3.65; ready biodegradability: not readily biodegradable
CCCC/C=C/CCCCC | -83.8 °C | 192 °C | –
Fc1ccc(N=C=S)cc1 | 27 °C | 228 °C | –
CCCCCC1CCCC1 | -83 °C | 180 °C | –
FC(F)(F)C(F)(F)C(F)(F)F | -148 °C | -36.6 °C | log10 vapour pressure (mmHg): 3.82
C=CCCCCCCCC | -66.3 °C | 170 °C | log10 vapour pressure (mmHg): 0.223; log10 biotransformation half-life (days): 0.65
CN(C)C#N | – | 164 °C | –
CCCC(C)C(O)CC (stereo not given) | -123 °C | 170 °C | –
COc1ccc2c(c1OC)C(=O)OC2 | 102 °C | – | –
Cc1cccc(F)c1 | -87 °C | 115 °C | log10 vapour pressure (mmHg): 1.34
COc1ccccc1OC(=O)c1ccccc1 | 57.5 °C | – | –
O=C=Nc1ccc(N=C=O)cc1 | 97.5 °C | 260 °C | –
CCC(=O)c1c(O)cc(O)cc1O | 176 °C | – | –
Cc1ccc(O)c(I)c1 | 35 °C | – | –
CC(C)OC(=O)C(C)Cl (stereo not given) | – | 152 °C | –
Cc1cc(Br)ccc1Br | 5.6 °C | 236 °C | –
CC(C)NC(C)(C)C | – | 98 °C | –
FC(F)(F)C(F)(F)F | -101 °C | -78.1 °C | log10 Henry constant (atm·m³/mol): 1.31; log10 vapour pressure (mmHg): 4.4
CN1CCC(N(Cc2cccs2)c2ccccc2)CC1 | 96 °C | – | –
CCCCCCc1ccc(-c2ccc(C#N)cc2)cc1 | – | – | ready biodegradability: not readily biodegradable; log10 BCF: 3.52; log10 biotransformation half-life (days): 0.85

Structure (SMILES) | melting point | boiling point | further results
Brc1ccc(Oc2c(Br)cccc2Br)c(Br)c1 | – | – | log10 BCF: 5.88
COc1ccc([C@@H]2CC(=O)c3c(O)cc(O)cc3O2)cc1O | 228 °C | – | –
Oc1c(F)c(F)c(C(F)(F)F)c(F)c1F | – | 164 °C | –
c1ccc2c(c1)cc1ccc3cc4ccccc4c4ccc2c1c34 | 282 °C | – | log10 Koc (L/kg): 5.71; log10 biodegradation half-life (days): 2.47
C#CC(C)=O | – | 84 °C | –
C[Si]1(c2ccccc2)O[Si](C)(c2ccccc2)O[Si](C)(c2ccccc2)O[Si](C)(c2ccccc2)O1 (stereo not given) | 99 °C | – | –
Cc1cccc([N+](=O)[O-])c1C | 15 °C | 240 °C | log10 vapour pressure (mmHg): -0.445; ready biodegradability: not readily biodegradable
CC(Oc1ccccc1Cl)C(=O)O (stereo not given) | 114 °C | – | –
NC=S | 26.5 °C | – | –
IC1CCCC1 | – | 166 °C | –
C=CC(=O)OCCCCCC | -45 °C | – | ready biodegradability: readily biodegradable
CCc1ccc(C)cc1C | -62.9 °C | 188 °C | log10 biodegradation half-life (days): 0.602; log10 vapour pressure (mmHg): -0.0685
Nc1cc(Cl)ccc1[N+](=O)[O-] | 128 °C | – | –
O=S(=O)(Cl)c1ccc(I)cc1 | 85 °C | – | –
O=C(c1ccccc1)c1ccc(Cl)c([N+](=O)[O-])c1 | 105 °C | – | –
CC1(c2ccc(Oc3ccccc3)cc2)OC(=O)N(Nc2ccccc2)C1=O (stereo not given) | 141 °C | – | log10 vapour pressure (mmHg): -8.32
CCc1ccc(Br)cc1 | -43.5 °C | 204 °C | log10 vapour pressure (mmHg): -0.155
CC(=O)C(c1ccccc1)c1ccccc1 | 46 °C | 307 °C | –
O=S1OCCO1 | -11 °C | 173 °C | –
O=C(OCC(=O)N1CCC(O)CC1)c1ccccc1 | 122 °C | – | –
ClC(Cl)(Cl)c1ccc(C(Cl)(Cl)Cl)cc1 | 109 °C | – | –
O=C(O)c1ccc([N+](=O)[O-])o1 | 186 °C | – | –
Clc1ccc(Cl)c(-c2cc(Cl)c(Cl)c(Cl)c2Cl)c1 | – | – | log10 Henry constant (atm·m³/mol): -4.64
C=C(Br)CC1(C(C)C)C(=O)NC(=O)NC1=O | 181 °C | – | –
CCCCOC(=O)CCC | -91.5 °C | 166 °C | log10 vapour pressure (mmHg): 0.258
CCCCCCCCCc1cccc(O)c1CCCCCCCCC | – | – | ready biodegradability: not readily biodegradable

Structure (SMILES) | melting point | boiling point | further results
CC(O)COC(C)C (stereo not given) | – | 138 °C | –
CC=CC(C)=O | – | 122 °C | –
COCC(C)O (stereo not given) | -95 °C | 119 °C | log10 Henry constant (atm·m³/mol): -6.04; log10 vapour pressure (mmHg): 1.1; ready biodegradability: readily biodegradable
CSc1ccccc1 | – | 193 °C | log10 vapour pressure (mmHg): -0.314
O=C(O)C(F)(F)C(F)(F)C(F)(F)C(F)(F)C(=O)O | 134 °C | – | –
Cc1ccc2c(C)cccc2c1 | -16.9 °C | 264 °C | log10 vapour pressure (mmHg): -1.84
CCOP(=O)([O-])C(N)=O.[NH4+] | 175 °C | – | –
Cc1cccc(Cl)c1O | – | 189 °C | –
O=C(NO)c1ccccc1 | 128 °C | – | –
CC(C)=CC(=O)O | 69.5 °C | 197 °C | –
O=[N+]([O-])c1ccc(O)c(O)c1 | 175 °C | – | –
NN1C(=O)CSC1=S | 102 °C | – | –
CC(O)(P(=O)(O)O)P(=O)(O)O | – | – | ready biodegradability: readily biodegradable
Cc1ccc(C)cc1 | 13.2 °C | 138 °C | log10 Henry constant (atm·m³/mol): -2.16; log10 Koa: 3.79; log10 Koc (L/kg): 2.41; log10 biodegradation half-life (days): 0.954; log10 vapour pressure (mmHg): 0.947; ready biodegradability: readily biodegradable; log10 BCF: 1.17
Oc1cc(Cl)cc(Br)c1 | 70 °C | 256 °C | –
Nc1ccc(N)c2c1C(=O)c1cccc([N+](=O)[O-])c1C2=O | 257 °C | – | –
C=CC(=O)OC1CCCCC1C (stereo not given) | – | 210 °C | –
COc1ccc(CCCO)cc1 | 26 °C | – | –
CC(C)Cl | -117 °C | 35.7 °C | log10 vapour pressure (mmHg): 2.71
COc1cccc(Nc2ccccc2)c1 | 73 °C | – | –
CCCCCCCCCCCCCCCCCC(=O)OCCC | 28.9 °C | – | –
O=C1NC(=O)C([N+](=O)[O-])C(=O)N1 | 180 °C | – | –
O=c1c(O)c(-c2ccc(O)cc2O)oc2cc(O)cc(O)c12 | 304 °C | – | –
CCCC(C)(O)CC(C)C (stereo not given) | – | 171 °C | –
ClCc1ccc(Cl)cc1 | 31 °C | 223 °C | –
CC(C)N=C=O | – | 74.5 °C | –

Structure (SMILES) | melting point | boiling point | further results
O=C(O)/C(F)=C/c1ccccc1 | 158 °C | 290 °C | –
CC(=O)C(N=Nc1ccc(-c2ccc(N=NC(C(C)=O)C(=O)Nc3ccccc3)c(Cl)c2)cc1Cl)C(=O)Nc1ccccc1 (stereo not given) | – | – | ready biodegradability: not readily biodegradable
COc1c(C[C@@H](O)C(C)C)c(=O)n(C)c2c(OC)cccc12 | 86.5 °C | – | –
CCOC(=O)c1ccc2c(c1)OCO2 | 18.5 °C | 286 °C | –
NNc1c(Cl)cc(Cl)cc1Cl | – | – | ready biodegradability: not readily biodegradable
Cc1nc2cc(-c3ccccc3)ccc2o1 | 63 °C | – | –
COC(=O)COc1ccc(Cl)cc1Cl | 119 °C | – | log10 vapour pressure (mmHg): -2.64
BrC(Br)(Br)c1ccc2ccccc2n1 | 128 °C | – | –
CCN(CC)c1ccc(C)cc1 | – | 229 °C | –
CCOP(=O)(Sc1ccccc1)Sc1ccccc1 | – | – | log10 vapour pressure (mmHg): -6.57; log10 BCF: 1.51; log10 biotransformation half-life (days): -1.04
O=C(O)C(I)I | 110 °C | – | –
Clc1cc(-c2c(Cl)cccc2Cl)c(Cl)c(Cl)c1Cl | – | – | log10 Henry constant (atm·m³/mol): -4.41
Cc1ccc(NCc2ccccc2)cc1 | 19.5 °C | 319 °C | –
Cc1cc(Sc2cc(C)c(O)c(C(C)(C)C)c2)cc(C(C)(C)C)c1O | 126 °C | – | –
CC(C)(C)S(=O)(=O)O | 113 °C | – | –
Clc1ccc(-c2ccc(Cl)c(Cl)c2Cl)c(Cl)c1 | – | – | log10 Henry constant (atm·m³/mol): -4.18
C1CCCSCC1 | 0.5 °C | 174 °C | –
CC1CCC(C)C1=O (stereo not given) | – | 146 °C | –
CCOc1cc(NC(C)=O)ccc1C(=O)OC | 148 °C | – | –
CC(C)(C)c1cccc([N+](=O)[O-])c1 | 2 °C | 254 °C | –
O=Cc1ccc2ccccc2c1 | 62 °C | – | –
CC1CCCC1 | -142 °C | 71.8 °C | log10 biodegradation half-life (days): 0.602; log10 vapour pressure (mmHg): 2.14
CN(C)N=O | – | 154 °C | log10 vapour pressure (mmHg): 0.431; ready biodegradability: not readily biodegradable
